Target: recombinant IL4I1 (Homo sapiens (Human), UniProt Q96RQ9)
Test: IL4I1 Enzymatic Assay (Amplex Red/HRP coupled fluorescence detection of H2O2)
Type: biochemical
Conditions: 240 min; recombinant IL4I1, four-hour pre-incubation with compound
Protocol: Interleukin 4 inducible protein 1 (IL4I1) is an L-amino oxidase that catalyzes the oxidation of aromatic residues (Phe, Trp and Tyr): L-amino acid+H2O+O2→2-oxo acid+NH3+H2O2. Equal molar of H2O2 and the corresponding alpha-ketoacid are produced when IL4I1 and substrate are added. In this assay, the hydrogen peroxide generated by IL4I1 is then detected through a coupled reaction with Amplex® Red (10-acetyl-3,7-dihydroxyphenoxazine) and horseradish peroxidase (HRP) to produce resorufin product that could be detected in the form of fluorescence signals. The assessment of the inhibitory effect of small molecules (EC50) on IL4I1 is measured by the effectiveness of the compounds to inhibit the production of H2O2.
Using this assay, the potency (EC50) of each compound was determined from a ten-point (1:3 serial dilution) titration curve using the following outlined procedure. To each well of a black flat-bottom Greiner (Cat #781076) 384 well-plate, 25 nL of compound (0.1% DMSO in final assay volume of 25 μL) was dispensed, followed by the addition of 12.5 μL of 1× assay buffer (50 mM Hepes 7.0 and 0.005% Tween20 (Sigma, Cat #P8341; low peroxide grade)) containing 2 nM of recombinant IL4I1 (R&D Systems, Cat #5684-AO-020). Plates were placed in an ambient temperature humidified chamber for a four-hour pre-incubation with compound. Subsequently, each reaction was initiated by the addition of 12.5 μL 1× assay buffer containing 2 mM of each aromatic amino acids (Phe/Tyr/Trp), 0.1 mM Amplex Red and 2 U/mL of HRP. The final reaction in each well of 25 μL consisted of 1 nM of IL4I1, 1 mM of each residues (Phe, Tyr and Trp), 0.05 mM Amplex Red and 1 U/mL of HRP. It should be noted that the concentrations of Amplex Red and HRP used here were in excess such that the conversion of H2O2 to resorufin product occurred instantaneously and was non-rate limiting. Reactions were allowed to proceed for 120 minutes followed by fluorescence readout on a Spectramax with the following set parameters: 544 nm excitation/590 nm emission, 570 nm cutoff (EnVision is an alternative reader). Dose-response curves were generated by plotting percent effect (% product conversion; Y-axis) vs. Log10 compound concentrations (X-axis). EC50 values were calculated using a non-linear regression, four-parameters sigmoidal dose-response model and are shown in Potency Table 1.

Chain of recombinant IL4I1 (Q96RQ9 22-567): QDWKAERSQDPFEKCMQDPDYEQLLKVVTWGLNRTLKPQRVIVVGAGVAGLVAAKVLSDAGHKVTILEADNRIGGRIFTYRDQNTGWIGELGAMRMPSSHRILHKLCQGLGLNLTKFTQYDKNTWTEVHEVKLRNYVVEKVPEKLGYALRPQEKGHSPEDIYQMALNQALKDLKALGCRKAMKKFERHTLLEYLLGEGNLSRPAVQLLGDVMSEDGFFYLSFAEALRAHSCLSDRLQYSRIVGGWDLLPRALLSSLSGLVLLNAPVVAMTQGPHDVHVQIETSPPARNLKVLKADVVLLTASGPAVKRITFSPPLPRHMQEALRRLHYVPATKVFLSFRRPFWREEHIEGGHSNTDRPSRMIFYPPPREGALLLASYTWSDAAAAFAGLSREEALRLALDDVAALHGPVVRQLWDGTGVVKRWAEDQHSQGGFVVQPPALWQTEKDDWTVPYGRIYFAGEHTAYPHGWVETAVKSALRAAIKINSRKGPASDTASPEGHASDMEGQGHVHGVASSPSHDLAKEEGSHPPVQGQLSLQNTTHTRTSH

| EC50 [nM] | SMILES |
| --- | --- |
| 8 | O=c1c(=O)n(C2CCC2)ccn1Cc1nnc(-c2ccc(F)cc2)s1 [Example 30, 1-cyclobutyl-4-((5-(4-fluorophenyl)-1,3,4-thiadiazol-2-yl)methyl)-1,4-dihydropyrazine-2,3-dione] |
| 6 | O=C1C(=O)N(C23CC(C2)C3)CCN1Cc1nnc(-c2ccccc2F)s1 [Example 31, 1-(bicyclo[1.1.1]pentan-1-yl)-4-((5-(2-fluorophenyl)-1,3,4-thiadiazol-2-yl)methyl)piperazine-2,3-dione] |
| 5 | O=C1C(=O)N(C23CC(C2)C3)CCN1Cc1nnc(-c2ccc(F)cc2)s1 [Example 32, 1-(bicyclo[1.1.1]pentan-1-yl)-4-((5-(4-fluorophenyl)-1,3,4-thiadiazol-2-yl)methyl)piperazine-2,3-dione] |
| 8 | O=C1C(=O)N(C2CCC2)CCN1Cc1nnc(-c2ccccc2F)s1 [Example 33, 1-cyclobutyl-4-((5-(2-fluorophenyl)-1,3,4-thiadiazol-2-yl)methyl)piperazine-2,3-dione] |
| 34 | O=c1c(=O)n(C2CCC2)ccn1Cc1nnc(-c2ccccc2F)s1 [Example 34, 1-cyclobutyl-4-((5-(2-fluorophenyl)-1,3,4-thiadiazol-2-yl)methyl)-1,4-dihydropyrazine-2,3-dione] |
| 3 | O=c1c(=O)n(C2CCCC2)ccn1Cc1nnc(-c2ccc(F)cc2)s1 [Example 35, 1-cyclopentyl-4-((5-(4-fluorophenyl)-1,3,4-thiadiazol-2-yl)methyl)-1,4-dihydropyrazine-2,3-dione] |
| 6 | O=c1c(=O)n(C23CC(C2)C3)ccn1Cc1nnc(-c2ccc(F)cc2)s1 [Example 36, 1-(bicyclo[1.1.1]pentan-1-yl)-4-((5-(4-fluorophenyl)-1,3,4-thiadiazol-2-yl)methyl)-1,4-dihydropyrazine-2,3-dione] |
| 18 | O=C1C(=O)N(C2CCCC2)CCN1Cc1ccc(-c2cccnc2)nn1 [Example 37, 1-cyclopentyl-4-((6-(pyridin-3-yl)pyridazin-3-yl)methyl)piperazine-2,3-dione] |
| 23 | O=C1C(=O)N(C23CC(C2)C3)CCN1Cc1ccc(-c2ccccc2)nn1 [Example 38, 1-(bicyclo[1.1.1]pentan-1-yl)-4-((6-phenylpyridazin-3-yl)methyl)piperazine-2,3-dione] |
| 3 | O=c1c(=O)n([C@H]2C[C@H]3C[C@H]3C2)ccn1Cc1nnc(-c2ccccc2)s1 [Example 39, 1-((cis)-bicyclo[3.1.0]hexan-3-yl)-4-((5-phenyl-1,3,4-thiadiazol-2-yl)methyl)-1,4-dihydropyrazine-2,3-dione] |
| 2 | O=c1c(=O)n([C@H]2C[C@H]3C[C@H]3C2)ccn1Cc1nnc(-c2ccc(F)cc2)s1 [Example 41, 1-((cis)-bicyclo[3.1.0]hexan-3-yl)-4-((5-(4-fluorophenyl)-1,3,4-thiadiazol-2-yl)methyl)-1,4-dihydropyrazine-2,3-dione] |
| 5 | O=C1C(=O)N([C@H]2C[C@H]3C[C@H]3C2)CCN1Cc1nnc(-c2cccc(F)c2)s1 [Example 42, 1-((cis)-bicyclo[3.1.0]hexan-3-yl)-4-((5-(3-fluorophenyl)-1,3,4-thiadiazol-2-yl)methyl)piperazine-2,3-dione] |
| 3 | O=c1c(=O)n([C@H]2C[C@H]3C[C@H]3C2)ccn1Cc1nnc(-c2cccc(F)c2)s1 [Example 43, 1-((cis)-bicyclo[3.1.0]hexan-3-yl)-4-((5-(3-fluorophenyl)-1,3,4-thiadiazol-2-yl)methyl)-1,4-dihydropyrazine-2,3-dione] |
| 7 | O=C1C(=O)N([C@H]2C[C@H]3C[C@H]3C2)CCN1Cc1nnc(-c2ccccc2F)s1 [Example 44, 1-((cis)-bicyclo[3.1.0]hexan-3-yl)-4-((5-(2-fluorophenyl)-1,3,4-thiadiazol-2-yl)methyl)piperazine-2,3-dione] |
| 5 | O=c1c(=O)n([C@H]2C[C@H]3C[C@H]3C2)ccn1Cc1nnc(-c2ccccc2F)s1 [Example 45, 1-((cis)-bicyclo[3.1.0]hexan-3-yl)-4-((5-(2-fluorophenyl)-1,3,4-thiadiazol-2-yl)methyl)-1,4-dihydropyrazine-2,3-dione] |
| 13 | O=C1C(=O)N(C2CCCC2)CCN1Cc1cnc(-c2ccccc2F)cn1 [Example 46, 1-cyclopentyl-4-((5-(2-fluorophenyl)pyrazin-2-yl)methyl)piperazine-2,3-dione] |
| 3 | O=c1c(=O)n([C@H]2C[C@H](c3ccccc3)C2)ccn1Cc1nnc(-c2ccccc2)s1 [Example 47, 1-((5-phenyl-1,3,4-thiadiazol-2-yl)methyl)-4-((trans)-3-phenylcyclobutyl)-1,4-dihydropyrazine-2,3-dione] |
| 2 | O=c1c(=O)n([C@H]2C[C@@H](c3ccccc3)C2)ccn1Cc1nnc(-c2ccccc2)s1 [Example 48, 1-((5-phenyl-1,3,4-thiadiazol-2-yl)methyl)-4-((cis)-3-phenylcyclobutyl)-1,4-dihydropyrazine-2,3-dione] |
| 3 | O=c1c(=O)n(C2CCC2)ccn1Cc1ccc(-c2ccccc2F)nn1 [Example 49, 1-cyclobutyl-4-((6-(2-fluorophenyl)pyridazin-3-yl)methyl)-1,4-dihydropyrazine-2,3-dione] |
| 4 | O=c1c(=O)n([C@H]2C[C@H]3C[C@H]3C2)ccn1Cc1ccc(-c2ccccc2F)nn1 [Example 50, 1-((cis)-bicyclo[3.1.0]hexan-3-yl)-4-((6-(2-fluorophenyl)pyridazin-3-yl)methyl)-1,4-dihydropyrazine-2,3-dione] |
| 8 | O=C1C(=O)N([C@H]2C[C@H]3C[C@H]3C2)CCN1Cc1ccc(-c2ccccc2F)nn1 [Example 51, 1-((1R,3r,5S)-bicyclo[3.1.0]hexan-3-yl)-4-((6-(2-fluorophenyl)pyridazin-3-yl)methyl)piperazine-2,3-dione] |
| 4 | O=c1c(=O)n(C2CCCC2)ccn1Cc1ccc(-c2ccccc2)nn1 [Example 52, 1-cyclopentyl-4-((6-phenylpyridazin-3-yl)methyl)-1,4-dihydropyrazine-2,3-dione] |
| 7 | O=c1c(=O)n(C2CCCC2)ccn1Cc1ccc(-c2ccccc2F)nn1 [Example 53, 1-cyclopentyl-4-((6-(2-fluorophenyl)pyridazin-3-yl)methyl)-1,4-dihydropyrazine-2,3-dione] |
| 2 | O=c1c(=O)n(C2CCC2)ccn1Cc1cc(-c2cccc(F)c2)on1 [Example 54, 1-cyclobutyl-4-((5-(3-fluorophenyl)isoxazol-3-yl)methyl)-1,4-dihydropyrazine-2,3-dione] |
| 1 | O=c1c(=O)n(C2CCC2)ccn1Cc1cc(-c2ccc(F)cc2)on1 [Example 55, 1-cyclobutyl-4-((5-(4-fluorophenyl)isoxazol-3-yl)methyl)-1,4-dihydropyrazine-2,3-dione] |
| 1 | O=c1c(=O)n(C2CCC2)ccn1Cc1cc(-c2ccccc2)on1 [Example 56, 1-cyclobutyl-4-((5-phenylisoxazol-3-yl)methyl)-1,4-dihydropyrazine-2,3-dione] |

| SMILES | EC50 [nM] |
| --- | --- |
| O=C1C(=O)N(C2CC3CC3C2)CCN1Cc1nnc(-c2ccc(F)cc2)s1 (stereo not drawn) [Example 40, 1-((cis)-bicyclo[3.1.0]hexan-3-yl)-4-((5-(4-fluorophenyl)-1,3,4-thiadiazol-2-yl)methyl)piperazine-2,3-dione] | 4 |
